1 compound from patent US20230158063A1, “AIRWAY […] THERAPY TO TREAT VIRAL R[…]” (THE TRUSTEES OF INDIANA UNIVERSITY, priority 2020, published 2023) can be followed below.

For this assay, the system named is primary normal human airway epithelial (HAE) cells. Kind of assay: Intracellular pH of HAE cells by pH-sensitive dye fluorescence microscopy. The format is cell-based. As to conditions: HAE cells pre-loaded with 1.25 μM BCECF-AM; normalized to pre-treatment; n=3; ZnCl2 at 100 μM.

Regarding `[Cl-].[Cl-].[Zn+2]` [ZnCl2, zinc chloride], the “BCECF-AM fluorescence intensity (increases as pH increases)” value is recorded as “essentially eliminating fluorescence”.
